# How the values were obtained:
# HCA-7 colon cancer cells = conditions: 10 μM; cited from earlier work
# [1] = system: LPS-activated human macrophages; conditions: 100 nM; cited from earlier work
# young rats = conditions: 10 mg/kg/day; cited from earlier work
# human NK cells = conditions: 0.01-10 μM, pretreatment 1 h, then 50 ng/ml IL-2, 0.33 μM PGE2, 18 hours; cited from earlier work
# EP4 [2] = molecular target: T1, EP4 (Homo sapiens, UniProt P35408); conditions: full antagonist; read-out: IC50 in the functional assay; cited from earlier work
# T1 sequence (P35408 whole entry): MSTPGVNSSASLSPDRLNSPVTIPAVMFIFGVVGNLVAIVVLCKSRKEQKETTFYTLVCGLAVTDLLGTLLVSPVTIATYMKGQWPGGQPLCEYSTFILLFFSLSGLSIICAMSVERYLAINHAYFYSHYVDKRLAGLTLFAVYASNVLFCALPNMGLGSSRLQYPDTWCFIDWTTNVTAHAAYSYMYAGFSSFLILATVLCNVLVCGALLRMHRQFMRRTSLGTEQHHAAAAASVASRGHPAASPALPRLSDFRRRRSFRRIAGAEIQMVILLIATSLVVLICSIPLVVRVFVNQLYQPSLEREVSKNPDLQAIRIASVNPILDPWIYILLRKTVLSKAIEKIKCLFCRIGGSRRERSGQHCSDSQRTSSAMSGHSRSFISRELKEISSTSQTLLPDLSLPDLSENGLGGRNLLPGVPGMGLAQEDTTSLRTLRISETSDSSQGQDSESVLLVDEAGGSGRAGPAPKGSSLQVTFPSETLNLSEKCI
# NK cells = conditions: cited from earlier work
# Th1 helper cells = experiment: IFN-γ production by Th1 helper cells in the NOD; format: cell-based, mouse
# Source text: Type 1 diabetes (T1D) is a consequence of autoimmune destruction of pancreatic islet β-cells, but the involved processes remain unclear. […] The iPLA2β hydrolyzes membrane phospholipids at the sn-2 substituent to release a fatty acid (i.e., arachidonic acid), that is metabolized to generate proinflammatory (pi) lipids. We find that global reduction of iPLA2β reduces T1D incidence. Given the importance of T-lymphocytes in T1D development, we investigated the contribution of iPLA2β-derived lipids (iDLs) from T-lymphocytes with adoptive transfer and ex vitro functional approaches. The CD4^+/8^+ T-cells were purified from pre-diabetic female NOD and NOD.iPLA2β^+/− (HET) spleens. Different combinations of the cells (NOD4+8, NOD4+HET8, and NOD8+HET4) were then administered (i.p. 7.5×10^6: 2.5×10^6) to 4-week-old female immunodeficient NOD.scid mice. We find that scid recipients of a combination that included HET4 or HET8 had higher plasma insulin, decreased insulitis, and increased β-cell mass, compared to recipients of NOD4+NOD8.
# NOD mice = experiment: T1D incidence in NOD mice; format: in vivo, mouse; conditions: 30-week monitoring period, vehicle only 75%
# Procedure: To determine the impact of their signaling on T1D incidence, we treated NOD mice with either GP or EC alone starting at 4 weeks of age or in combination, where GP was started at 4 weeks of age and EC was introduced at 10 weeks of age. T1D incidence was recorded when blood glucose levels ≥[…] were measured in two consecutive weeks.
# [3] = system: mouse model of peritonitis; conditions: 10-100 ng dose; cited from earlier work
# [4] = system: human polymorphonuclear leukocyte (PMNL); conditions: read-out: EC50, reduction of human PMNL transendothelial migration; cited from earlier work
# EP2 = EP2 (Homo sapiens, UniProt P43116); conditions: cited from earlier work
# EP2, sequence (P43116 whole entry): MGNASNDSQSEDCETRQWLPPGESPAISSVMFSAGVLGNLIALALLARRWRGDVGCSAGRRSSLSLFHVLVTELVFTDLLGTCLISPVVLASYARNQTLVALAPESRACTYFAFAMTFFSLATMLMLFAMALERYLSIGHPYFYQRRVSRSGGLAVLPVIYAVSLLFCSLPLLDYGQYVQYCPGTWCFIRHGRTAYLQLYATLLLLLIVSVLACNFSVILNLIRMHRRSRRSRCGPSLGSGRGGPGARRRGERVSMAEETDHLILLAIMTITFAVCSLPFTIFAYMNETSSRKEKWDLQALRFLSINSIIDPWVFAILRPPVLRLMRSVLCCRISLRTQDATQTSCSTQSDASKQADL
# EP1 = molecular target: T2, EP1 (Homo sapiens, UniProt P34995); conditions: cited from earlier work
# T2 sequence (P34995 1-402): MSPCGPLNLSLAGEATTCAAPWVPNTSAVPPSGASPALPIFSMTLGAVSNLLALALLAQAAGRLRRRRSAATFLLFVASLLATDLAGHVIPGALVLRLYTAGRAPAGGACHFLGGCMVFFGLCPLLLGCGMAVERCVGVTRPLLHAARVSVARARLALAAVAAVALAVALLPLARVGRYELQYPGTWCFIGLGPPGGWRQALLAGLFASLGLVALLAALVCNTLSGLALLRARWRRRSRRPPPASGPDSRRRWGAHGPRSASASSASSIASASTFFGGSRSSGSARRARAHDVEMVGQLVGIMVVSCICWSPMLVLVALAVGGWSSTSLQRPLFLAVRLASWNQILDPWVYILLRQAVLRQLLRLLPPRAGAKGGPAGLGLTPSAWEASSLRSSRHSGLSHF
# EP4 [5] = molecular target: T1, EP4; conditions: HEK293 cells expressing EP4; cited from earlier work
# EP4 [6] = molecular target: T1, EP4; conditions: CHO cells expressing EP4; 10 μM; cited from earlier work
# RAW 264.7 cells = conditions: 10 μM; cited from earlier work
# EP3 = molecular target: T3, EP3 (Homo sapiens, UniProt P43115); conditions: cited from earlier work
# T3 sequence (P43115 1-390): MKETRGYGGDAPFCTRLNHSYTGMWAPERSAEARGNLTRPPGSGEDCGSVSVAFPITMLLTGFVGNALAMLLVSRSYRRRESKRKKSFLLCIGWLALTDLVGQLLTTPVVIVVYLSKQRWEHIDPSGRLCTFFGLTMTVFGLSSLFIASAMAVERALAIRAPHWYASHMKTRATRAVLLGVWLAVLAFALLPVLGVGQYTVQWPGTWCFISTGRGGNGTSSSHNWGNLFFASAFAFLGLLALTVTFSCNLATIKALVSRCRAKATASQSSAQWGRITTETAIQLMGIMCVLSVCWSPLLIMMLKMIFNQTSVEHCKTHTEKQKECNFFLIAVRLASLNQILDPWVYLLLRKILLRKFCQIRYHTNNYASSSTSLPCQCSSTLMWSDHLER
compound,measurement,setting,value
"CCCCc1nn(-c2ccccc2C(F)(F)F)c(=O)n1Cc1ccc(-c2ccccc2S(=O)(=O)NC(=O)c2sccc2C)cc1 [L-161,982]",PGE2-induced cell proliferation,HCA-7 colon cancer cells,blocks
same,anti-inflammatory action of PGE2,[1],reverses
same,PGE2-stimulated bone formation,young rats,suppresses
O=C(O)c1ccc(C2(NC(=O)c3cccc4ccn(Cc5ccc(C(F)(F)F)cc5)c34)CC2)cc1 [MF-766],PGE2-suppressed IFN-γ secretion,human NK cells,reverses
same,IC50,EP4 [2],0.0014 µM
same,NK cell viability,NK cells,not affected
CCc1nc2c(C)nc(C)cc2n1-c1ccc(CCNC(=O)NS(=O)(=O)c2ccc(C)cc2)cc1 [grapiprant],IFN-γ production by Th1 helper cells,Th1 helper cells,significantly reduced
same,T1D incidence,NOD mice,50%
CC/C=C\C[C@H](O)/C=C/C=C\C=C\C=C\[C@@H](O)[C@@H](O)C/C=C\CCC(=O)O [RvD1],maximal inhibition of leukocyte infiltration,[3],~35%
same,EC50,[4],~0.03 µM
C/C=C/c1nnn(Cc2ccc(C(F)(F)F)cc2)c1C(=O)N[C@@H](C)c1ccc(C(=O)O)cc1 [EP4 receptor antagonist 1],IC50,EP2,> 10 µM
same,IC50,EP1,> 10 µM
same,PGE2-induced β-arrestin recruitment,EP4 [5],inhibits
same,ERK phosphorylation induced by PGE2,EP4 [6],reverses
same,"GM-CSF-induced expression of II1b, II4ra, II6, Arg1, Cox2, and II10",RAW 264.7 cells,decreases
same,IC50,EP3,> 10 µM
CC[C@H](C)C(=O)N1CCC(NC(=O)Nc2ccc(OC(F)(F)F)c(F)c2)CC1 [EC5026],IFN-γ production by Th1 helper cells,Th1 helper cells,significantly reduced
same,T1D incidence,NOD mice,without effect
CC/C=C\C[C@@H](O)/C=C/C=C\C=C\C=C\[C@@H](O)[C@@H](O)C/C=C\CCC(=O)O [17 (R)-epimer of RvD1],maximal inhibition of leukocyte infiltration,[3],~35%
same,EC50,[4],~0.03 µM

# Reference: US20240342196A1, “TARGETING SELECT LIPID SIGNALING TO COUNTER TYPE 1 DIABETES (T1D)” (The UAB Research Foundation, priority 2023, published 2024)
